What was measured:
Assay type in all cases: biochemical
Arabidopsis β-RCA = molecular target: T1, Arabidopsis β-RCA (Arabidopsis thaliana, UniProt P10896); assay: continuous coupled Rubisco activation assay (dPGM, enolase, PEP carboxylase, malate dehydrogenase; NADH, A340); details: ADP plus ATP 5 mM total at ADP:ATP 0.33; tobacco Rubisco ER form not restated for this set; pH 8, 30 °C, 10 mM MgCl2
T1 construct: recombinant, expressed in Escherichia coli and purified
T1 sequence (P10896 59-446 isoform P10896-2): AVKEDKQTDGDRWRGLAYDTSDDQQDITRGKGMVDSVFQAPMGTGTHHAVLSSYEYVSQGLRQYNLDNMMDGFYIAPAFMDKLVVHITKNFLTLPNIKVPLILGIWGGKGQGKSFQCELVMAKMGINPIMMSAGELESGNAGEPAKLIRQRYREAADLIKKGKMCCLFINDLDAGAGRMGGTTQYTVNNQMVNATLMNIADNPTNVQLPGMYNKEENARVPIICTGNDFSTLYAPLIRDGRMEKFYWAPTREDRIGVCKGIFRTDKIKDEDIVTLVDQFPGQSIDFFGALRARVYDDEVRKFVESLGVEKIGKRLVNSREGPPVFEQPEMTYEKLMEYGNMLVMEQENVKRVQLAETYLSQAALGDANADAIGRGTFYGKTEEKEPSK

[1] = molecular target: T2, tobacco Rubisco (wild-type) (Nicotiana tabacum, UniProt P00876); assay: continuous coupled 3-PGA formation assay (NADH, A340); details: ECM form, 0.5 or 2 mM RuBP, 10 mM NaHCO3, 10 mM MgCl2, 5 mM ATP, pH 8, 30 °C; RuBP also inhibits as tight ER complex
T2 construct: gene rbcL; native, purified from tobacco leaves; converted to ER form or carbamylated ECM form; with Ribulose bisphosphate carboxylase small subunit, chloroplastic
T2 sequence (P69249 58-180, other chains not shown): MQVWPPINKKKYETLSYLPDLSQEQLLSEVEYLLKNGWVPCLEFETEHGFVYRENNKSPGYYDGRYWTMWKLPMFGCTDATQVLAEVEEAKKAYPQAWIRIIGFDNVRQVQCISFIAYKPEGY

[2] = molecular target: T3, His-tagged modified Rubisco (Nicotiana tabacum, UniProt P00876); assay: as above; details: ECM form, 0.5 or 2 mM RuBP, 10 mM NaHCO3, 10 mM MgCl2, 5 mM ATP, pH 8, 30 °C; RuBP also inhibits as tight ER complex
T3 construct: gene rbcL; six histidines added to the C-terminus of the large subunit; from transgenic tobacco plants; with Ribulose bisphosphate carboxylase small subunit, chloroplastic
T3 sequence (P69249 58-180, other chains not shown): as above

| % inhibition at 0.33 ADP:ATP (Arabidopsis β-RCA) | Structure (SMILES) | continuous coupled 3-PGA formation assay (NADH, A340) [1] | continuous coupled 3-PGA formation assay (NADH, A340) [2] |
| --- | --- | --- | --- |
| 25% | Nc1ncnc2c1ncn2[C@@H]1O[C@H](COP(=O)(O)OP(=O)(O)O)[C@@H](O)[C@H]1O [ADP] | – | – |
| – | O=C(COP(=O)(O)O)[C@H](O)[C@H](O)COP(=O)(O)O [RuBP] | specific activity of the ECM form of wild-type and modified Rubisco | specific activity of the ECM form of wild-type and modified Rubisco |

Source: PMC3923112, “A non-radioactive method for measuring Rubisco activase activity in the presence of variable ATP: ADP ratios, including modifications for measuring the activity and activation state of Rubisco” (Photosynthesis Research, 2014)
